# Measured values reported in patent US20240083998A1, “PREVENTION AND TREATMENT OF STEROID-RESISTANT OR GUT GRAFT-VERSUS-HOST DISEASE (GVHD)” (CIY OF HOPE, priority 2021, published 2024).
# Tested on: BALB/c recipients
# Description: Splenocytes and T cell depleted bone marrow cells from donors were injected via tail vein into recipients 6-8 hours after irradiation. […] Depletion of T cells from the bone marrow was accomplished by using biotin-conjugated anti-CD4 and anti-CD8 mAbs, and streptavidin Microbeads (Miltenyi Biotec, Germany), followed by passage through an autoMACS Pro cell sorter (Miltenyi Biotec, Germany). Microbeads (Ly-2, Miltenyi Biotec, Germany) were used for to purify CD8^+T cell, and purity was>99%. The assessment and scoring of clinical signs of GVHD have been described in previous publications^60.
# ELISA: Reg3γ(antibodies online), ST2 (R&D system) and sTNFR1 (Thermo Scientific) in serum were measured by enzyme-linked immune sorbent assay (ELISA) according to manufacturer's protocol. Serum was collected and spun down at 2000 rpm for 10 min at 4° C. Clear supernatant was collected and stored at −20° C. until ELISA analysis. […]
# Histological analysis: Tissue specimens were fixed in formalin before embedding in paraffin blocks, sectioned and stained with H&E. Slides were examined at 100× or 200× magnification and visualized with a Zeiss Observer II. […] For Paneth cell quantification, a total of 9 pictures from 3 different locations of the H&E-stained slides from one mouse were taken under 200× magnification, and total Paneth cell and crypt numbers were counted, Paneth cell numbers per crypt are shown. […]
smiles,measurement,setting,value
"C[C@@H]1C[C@H]2[C@@H]3CCC4=CC(=O)C=C[C@]4(C)[C@@]3(F)[C@@H](O)C[C@]2(C)[C@@]1(O)C(=O)CO [DEX, Dexamethasone]",IL-17A+IL-22−CD4+Th17 and IL-17A+IL-22−CD8+Tc17 cells among CD4+ and CD8+T cells,"recipients treated with DEX, 7 days after HCT",1-5%
same,survival after HCT,"single injection 5 mg/Kg on day 3 (1-DEX), mild clinical GVHD",up to 20 days
